Tests used:
SMN2 [1] = test: SMN2 splice-switching for exon 7 inclusion by RT-qPCR in SMA Type I patient-derived fibroblasts (Example 2); assay type: cell-based, human; conditions: for level of exon-7 inclusion activity (full length SMN2/HPRT1, normalised to untreated control set to 1): treated 4 hrs, then 20 hrs growth medium, mean±SEM
Description: FIG. 3. (A) SMN2 pre-mRNA exon-7 skipping and production of 80-90% SMN2Δ7 mRNA transcripts. Peptide-PMO binding to Intron-splicing silencer (ISS-N1) and restoration of SMN2 splicing and production of full-length SMN2 mRNA transcripts. The positions of forward and reverse primers highlighted on full-length mRNA. (B)-(C) Effect of administration of peptides linked to PMO for SMN2 exon 7 inclusion, measured as change in the level of full length SMN2/HPRT1 in SMA patient-derived fibroblasts, each at two concentrations, 0.5 μM and 1 μM (or 1 μM and 5 μM in the case of PMO alone). UT, untreated. (B) For PMO constructs, from left to right: PMO; ApoE(141-150)-PMO; ApoE(133-150)-PMO. (C) For PMO constructs, from left to right: PMO; HA2-PMO; GALA-PMO; NLS-PMO; ApoE(141-150)-PMO; HA2-ApoE(141-150)-PMO; GALA-ApoE(141-150)-PMO; NLS-ApoE(141-150)-PMO; H4-ApoE(141-150)-PMO; A4-ApoE(141-150)-PMO. *P<0.05,**P<0.001, ***P<0.0001 cf. Untreated (control) and PMO (1 and 5 μM); #P<0.001 cf. GALA-/NLS-/H4-ApoE(141-150)-PMO (1 μM), ^<0.001 cf. ApoE(133-150)-PMO (0.5 and 1 μM), ^OP<0.001 cf. ApoE(141-150)-PMO (1 μM), ^&P<0.05 cf.
The inventors then evaluated cellular uptake and activity of these peptide-PMO conjugates in SMA Type I patient-derived fibroblasts with two copies of SMN2. Efficiency of uptake was assessed by RT-qPCR using SMN2 splice-switching for exon 7 inclusion (see FIG. 3A).
SMA Type I patient-derived fibroblasts (SMN2^+/+, GM03813, Coriell Cell Repositories) were maintained in Dulbecco's Modified Eagle's Medium (DMEM), supplemented with 10% foetal bovine serum (FBS), 1% Penicillin/Streptomycin and 1% L-glutamine (L-glu) at 37° C. Cells were plated in 6-well plates at a density of 3×10^5/well in 6 well plates one day prior to treatment with PMO and peptide-PMO conjugates. Cells used were from passage 8-22. PMO and the peptide-PMO conjugates were dissolved in nuclease-free water and diluted to appropriate concentrations in Opti-MEM reduced serum medium. Cells were treated for 4 hrs at 37° C. The transfection medium was then removed and replaced with growth medium in which the cells were incubated for 20 hrs.
Cells were washed with PBS and total cellular RNA was extracted using Trizol (TRI Reagent®, Sigma) according to the manufacturer's instructions (Life Technologies). 400 ng purified RNA was reverse transcribed into cDNA using BioRad iScript Reverse Transcription Supermix kit according to the manufacturer's instructions. The reverse transcription was performed using the Veriti Thermal Cycler (ThermoFisher Scientific) with the thermal cycling conditions: 25° C. for 5 min, 46° C. for 20 min, 95° C. for 1 min followed by a 4° C. holding period.
Quantitative PCR (20 ng cDNA/well) was carried out in a 96-well plate in triplicate using SsoAdvanced Universal SYBR Green Supermix on a Biorad CFX96 Touch™ Real-Time PCR detection system. The amplification was carried out using full-length SMN2-specific primers: Ex-6 Forward 5′-[…]-3′ (SEQ ID NO:10) and Ex7-8 reverse 5′[…]-3′ (SEQ ID NO:11). Human HPRT1 was used as the internal reference gene with forward primer sequence 5′-[…]-3′ (SEQ ID NO:12) and reverse primer sequence 5′-[…]-3′ (SEQ ID NO:13). The ΔΔCt method was used to correct the Ct values against the HPRT1 Ct values. The values obtained were normalised to the untreated control values which were set to 1. Statistical analysis was carried out using one-way ANOVA with post-hoc Bonferroni for multiple groups comparison (GraphPad Prism V.8, 2018). All data are expressed as mean±SEM from at least three independent experiments with p<0.05 considered significant.

[2] = system: SMA patient-derived fibroblasts; test: Confocal fluorescence uptake of Cy5-labelled peptide-PMO conjugates in SMA fibroblasts; assay type: cell-based, human; conditions: 1 μM; for intracellular fluorescence pattern: 1 hr at 37° C.; for cellular uptake on addition of endosomal escape domain HA2: 1 hr, versus counterparts without HA2
Method: FIG. 4. Representative confocal fluorescence microscopy images of SMA patient-derived fibroblasts treated with 1 μM of Cy5-labelled: (A) ApoE(141-150)-PMO; (B) HA2-ApoE(141-150)-PMO; (C) ApoE(133-150)-PMO; and (D) HA2-ApoE(133-150)-PMO, for 1 hr at 37° C.
SMA fibroblasts (6.0×10^4 cells/well) were plated onto a p-Slide 4 Well Ph+ Glass Bottom chamber slides precoated with poly-L-ornithine (Ibidi GmbH). After 24 hr, cells were incubated for 1 hr with Cy5-labelled peptide-PMO conjugates (1 μM or 5 μM) diluted in serum free Opti-MEM. At 10 min to end of 1 hr incubation, Hoechst (1:1000 dilution) was added to each well.

fibroblasts = test: Viability of fibroblasts by MTS assay (cytotoxicity); assay type: cell-based, human
Method: FIG. 5. Effect of the endosomal escape domain HA2 and lipidation of peptide-PMO conjugates on the viability of fibroblasts determined using MTS assay. UT, untreated control.
The peptide-PMO conjugates were tested up to 10 μM which is 10-fold greater than the concentration needed to achieve a high level of activity.

[3] = assay type: in vivo, mice; conditions: 8 mg/kg; dose escalation at 5, 8 and 10 mg/kg; data not shown
SMN2 [4] = test: Full-length SMN2 RNA in tissues of transgenic SOD1+/- SMN2+/- mice by RT-qPCR; assay type: in vivo; conditions: 8 mg/kg/week for 5 weeks, tail vein injection, 7 days after final administration, mean±SEM, versus saline-treated control
Method: FIG. 6. SMN upregulation in SOD1^G93A mice. A, administration regime. B, Full length (FL) SMN2 levels in brain, spinal cord (S. cord), kidney and quadriceps (Quad) as determined by RT-qPCR in untreated mice (left hand columns) and mice treated with SEQ ID NO:6-PMO conjugate (right hand columns) after administration at a dose of 8 mg/kg weekly for five weeks. *, p<0.05; **, p<0.001; ***, p<0.0001 cf. saline-treated group.
A peptide consisting of the amino acid sequence of SEQ ID NO:6 was conjugated to the PMO antisense oligonucleotide of SEQ ID NO:9 via a non-reducible thioether (thiol-maleimide) bond as described in Example 1. […] Transgenic SOD1^+/− SMN2^+/− mice (n=5) at P60 were treated with Ac-HA2-ApoE(133-150)-PMO conjugate at 8 mg/kg/week for 5 weeks via tail vein injection. Age-matched control mice (n=6) were given saline. Tissues (brain, spinal cord, kidney and quadriceps) were harvested 7 days after final administration. The level of full-length SMN2 RNA was measured using RT-qPCR as above. The level of full-length SMN2 was normalised to mouse HPRT1 with forward primer sequence 5′-[…]-3′ (SEQ ID NO:14) and reverse primer sequence 5′[…]-3′ (SEQ ID NO:15). Data were expressed as mean±SEM. The statistical significances between saline-treated and Ac-HA2-ApoE(133-150)-PMO-treated groups were determined using the Student's t test. […]

[5] = intrathecal injection; cited from earlier work

## Ac-GLFHAIAHFIHGGWH-X-LRKLRKRLLR-X-C-PMO [HA2-ApoE(141-150)-PMO]
SMN2 [1]; 0.5 μM and 1 μM, versus comparator
  exon-7 inclusion activity, change in words: significant increase in the activity
[2]
  intracellular fluorescence pattern: higher fluorescence intensity with a more diffused pattern
  cellular uptake on addition of endosomal escape domain HA2: significantly enhanced cellular uptake
fibroblasts; at 10 μM
  effect on cell viability: decrease in cell viability
fibroblasts; up to 5 μM
  effect on cell viability: None of the P-PMO conjugates had a significant effect on cell viability

## Ac-GLFHAIAHFIHGGWH-X-LRVRLASHLRKLRKRLLR-X-C-PMO [HA2-ApoE(133-150)-PMO]
SMN2 [1]; 0.5 μM
  level of exon-7 inclusion activity (full length SMN2/HPRT1, normalised to untreated control set to 1): 2.02±0.12
SMN2 [1]; 1 μM
  level of exon-7 inclusion activity (full length SMN2/HPRT1, normalised to untreated control set to 1): 2.8±0.13
[2]
  intracellular fluorescence pattern: higher fluorescence intensity with a more diffused pattern
  cellular uptake on addition of endosomal escape domain HA2: significantly enhanced cellular uptake
fibroblasts; at 10 μM
  effect on cell viability: decrease in cell viability
fibroblasts; up to 5 μM
  effect on cell viability: None of the P-PMO conjugates had a significant effect on cell viability
[3]
  tolerability: well-tolerated without any signs of adverse effects
SMN2 [4]; brain
  level of full length SMN2 RNA (normalised to mouse HPRT1): 1.19±0.06
SMN2 [4]; spinal cord
  level of full length SMN2 RNA (normalised to mouse HPRT1): 1.56±0.1

## Ac-LRKLRKRLLR-X-C-PMO [ApoE(141-150)-PMO]
SMN2 [1]; FIG. 3B/3C, 0.5 μM and 1 μM
  exon-7 inclusion activity, dependence on concentration: concentration-dependent increase in activity
[2]
  intracellular fluorescence pattern: punctate intracellular fluorescence pattern

## TCACTTTCATAATGCTGG (chemistry not given here) [Nusinersen, FDA-approved antisense oligonucleotide for the treatment of spinal muscular atrophy]
[5]
  side effects such as postprocedural headache and backpain, share of adult patients: 32%

Source: US20230399378A1, “PEPTIDE-BASED DELIVERY OF AGENTS” (THE FLOREY INSTITUTE OF NEUROSCIENCE AND MENTAL HEALTH, priority 2020, published 2023)
